Source: patent EP0361645B1, “Organic hydrazine derivatives for pharmaceutical use” (ROHM AND HAAS COMPANY, priority 1988, dated 1990)

Assays:
[1] = test system: intact L5D0 hornworms; experiment: Premature head capsule apolysis in intact L5D0 hornworms, fed treated diet; type: in vivo, M. sexta; settings: for ED50: L5D0 larvae, oral, read-out: 50% effective dose
Description: Lepidoptera display the onset of a larval molt by slippage of the head capsule down over the mandibles during formation of an underlying pharate head capsule; this morphological marker accompanies epidermal apolysis which ordinarily occurs at or near peak molting hormone titers. Example No. 3 causes a rapid, premature apolysis in newly ecdysed fifth instar day 0 (L5DO) M. sexta larvae. Clear signs of head capsule apolysis are evident 24 hours after the initiation of feeding.
(§1) L4D1 means fourth instar, first day after molting. L4 animals 36 hours after ecdysis were ligated, decapitated and next day injected with varying doses of compound in 1 - 2 ul DMSO. They were scored as follows: 0 = normal L4 abdomens with no L5 crochets or spiracle apolysis; 1 = exposed dorsal vessel (response to moderate levels of molting hormone in the presence of low JH levels); 2 = L5 crochets formed but no spiracle apolysis; 3 = L5 crochets formed and mild spiracle apolysis; 4 = strong molting response, both L5 crochets and spiracle cuticle synthesized. These methods are an adaptation of the method of J. W. Truman, L. M. Riddiford, L. Safranek, 39 Dev. Biol 247 (1974). Injection and scoring of L5D3 abdomens (weighing 6.5 - 7.5 g) are also adaptations of previous methods in H. F. Nijhout, 22 J. Insect Physiol. 453 (1976). Mature feeding stage fifth instar animals weighing 8.5 - 9.5 g were ligated and decapitated, and immediately injected with Example No. 3 in 2 - 5 ul DMSO. Animals were held over moistened filter paper at 25 ° C and were scored after three days. Scoring was as follows: 0 = normal undeveloped blue-green L5D3 abdomen; 1 = light dorsal vessel exposure; 2 = dorsal vessel well-exposed with mild cuticular blanching, abdominal contraction; 3 = complete prepupal cuticle formation with strong abdominal contraction and strong cuticular blanching. For both L4 and L5 abdomens, 50% effective doses were determined by plotting the mean score for all individuals vs. dose, then determining the dose which gives a score of 2.0 and 1.5 respectively. Intact L5D0 hornworms were either allowed to feed on treated commercial black cutworm diet or injected into a proleg and scored after 48 hours. The 50% effective dose was calculated by plotting percentage of the population bearing a prematurely apolysed head capsule vs. dose. For all experiments in this table at least 5 different doses with 10 animals per dose were used.
The dosage differences between the two compounds was even more dramatic in bioassays on intact (unligated) L5D0 hornworms. If the compounds are injected, Example No. 3 was 67-fold as effective as 20-hydroxyecdysone, while if administered orally, it was over 670-fold as potent.
Hemolymph concentrations of 14C-Example No. 3 were measured by feeding L5D0 hornworm larvae artificial diet containing the labelled compound. At specified intervals thereafter measured volumes of hemolymph were collected, extracted and analyzed by thin layer chromatography and high performance liquid chromatography. […] Blood levels then declined rapidly, but remained at a residual level of about 3 uM for at least 36 hours thereafter.

[2] = test system: intact L5D0 hornworms; experiment: Premature head capsule apolysis in intact L5D0 hornworms, injected; type: in vivo, M. sexta; settings: for ED50: Manduca sexta, L5D0 larvae, read-out: 50% effective dose
Description: as §1
The dosage differences between the two compounds was even more dramatic in bioassays on intact (unligated) L5D0 hornworms. […]

[3] = test system: Kr cells; experiment: Process elaboration and inhibition of cell proliferation in Kr cells; type: cell-based, Drosophila; settings: Drosophila melanogaster; 48 hours incubation; initial cell density 2 X 10^6 cells/ml
Description: The invention will now be further described by way of exemplification and by reference to the drawings in which; • Figure 1. Both 20-hydroxyecdysone and Example No. 3 induce process elaboration (A) and inhibition of cell proliferation (B) in Kr cells in a dose-dependent manner. Initial cell density was 2 X 10^6 cells/ml; after incubation of 1 ml aliquots of the cells with the compound for 48 hours the cells were triturated gently and the percentage of cells responding (with processes longer than approximately 17 um, see Cherbas et al. 189 Wilhelm Roux's Arch. 1 (1980)) and total cell density was determined by hemocytom- eter counting, relative to ethanol (1 ul)-treated controls. Determinations were in triplicate for each dose. […] Induction of acetylcholinesterase by varying concentrations of 20-hydroxyecdysone and Example No. 3. Kr cells at an initial density of 3 X 10^6 cells/ml (10 ml per sample) were incubated with the agonist for three days. After harvesting, by centrifugation at 3000 X g, the cell pellets were washed with Robb's Drosophila saline (18, 2 X 5 ml) at 4 ° C, then lysed by sonication in 1 ml of phosphate buffer (pH 7.4, I = 0.1 M) containing 0.5 M NaCI, 0.25 M EDTA and 0.5% TRITON? X-100. See Cherbas, 197 Science 275 (1977). Triton is a registered trademark of Rohm and Haas Company for a alkylaryl polyoxyethylene glycol surfactant. After centrifugation at 16,000 X g, the supernatants were assayed for acetylcholinesterase activity by an adaptation of the method of Ellman et al., 7 Biochem. Pharmacol. 88 (1961), by subtracting out any 412 nm absorbance observed in incubations in the presence of 2 X 10-5 eserine sulfate. Thus reaction mixtures contained 50 ul of enzyme extract, 20 ul eserine (blank tubes only) and 1.0 ml of 0.5 mM acetylthiocholine, 0.3 mM dithiobisnitrobenzoic acid in phosphate buffer (pH 7.4, I = 0.1 M). Incubations were at 25 ° C for two hours; reactions in active tubes were terminated by addition of eserine. Absorbance at 412 nm was then measured. Protein concentration in extracts was measured by the Biorad method. […] Scatchard plot of ^3H-ponasterone A binding to Kr cell cytosolic receptor extracts in the presence of differing concentrations of Example No. 3. Cytosolic extract preparation and ecdysteroid receptor assays were essentially as described in Sage, 111 Meth. in Enzymol. 458 (1985). Example No. 3 was added in 1 ul DMSO to 50 ul of radioligand in 10 mM Tris buffer (pH 7.2) and 50 ul of undiluted cytosol extract. […] Ecdysteroid titers were measured by a radioimmunoassay adapted from Warren et al., 40 Experientia 393 (1984) with Protein A-Staph. aureus suspension (Sigma) used as the reagent to separate bound from free ligand. […]

CC(C)(O)CC[C@@H](O)[C@](C)(O)[C@H]1CC[C@@]2(O)C3=CC(=O)[C@@H]4C[C@@H](O)[C@@H](O)C[C@]4(C)[C@H]3CC[C@]12C [20-hydroxyecdysone, reference compound]
ED50 ([1]; Manduca sexta): > 2000 mg/kg | head capsule slippage ([1]; feeding up to 2000 ppm, L5D0 hornworm larvae): failed to elicit head capsule slippage | ED50 [2]: 181 mg/kg | EC50 [3]: 35 nM

CC(C)(C)N(NC(=O)c1ccccc1)C(=O)c1ccccc1 [Example No. 3, N'-t-butyl-N,N'-dibenzoylhydrazine]
ED95 ([1]; Manduca sexta, po, L5D0 hornworm larvae, in artificial diet, read-out: 95% effective dose for premature molting): ~10 mg/kg | ED50 ([1]; Manduca sexta): 3 mg/kg | fold as potent as 20-hydroxyecdysone ([1]; intact L5D0 hornworms, administered orally): over 670 fold | time to clear signs of head capsule apolysis ([1]; newly ecdysed L5D0 larvae, after the initiation of feeding): 24 h | ED50 [2]: 3.4 mg/kg | fold as effective as 20-hydroxyecdysone ([2]; intact L5D0 hornworms): 67 fold | EC50 [3]: 4800 nM
